Paper PMC8991007, “Benzylic Dehydroxylation of Echinocandin Antifungal Drugs Restores Efficacy against Resistance Conferred by Mutated Glucan Synthase” (Journal of the American Chemical Society, 2022)
Converted amounts (≈) assume the structure as drawn. Where two headings read alike, the source gives them in different places. *1 amine or outer side, *2 acyl side, *3 side chain or, on linkers, in order; H or OH if unused. Where a SMILES comes first, the peptide text is derived from it. Bridges are numbered along the chain shown (N, C = ends). [ ]: non-standard residue; d: D form. The star is where a group is joined. pTerphenylCO(4''-OnC5H11) = CCCCCOc1ccc(-c2ccc(-c3ccc(C(=O)*)cc3)cc2)cc1; Orn(4R-OH,5R-OH) = O=C([C@H](C[C@@H](O)[C@@H](O)N[*:3])N[*:1])[*:2]; Pro(3S-OH,4S-Me) = C[C@H]1CN[C@H](C(=O)O)[C@H]1O; hTyr(3R-OH) = N[C@H](C(=O)O)[C@H](O)Cc1ccc(O)cc1; Hyp = O=C(O)[C@@H]1C[C@@H](O)CN1

Tests used:
[1] = system: C. albicans; assay: Minimum inhibitory concentration broth double-dilution assay; format: cell-based, Candida albicans; conditions: for MIC: 24 h, 30 °C
Method: (§1) The antifungal activities of compounds 1 and 2 were evaluated against a panel of 50 strains of C. albicans and C. glabrata (Table S4), including echinocandin-resistant strains that were constructed by introducing mutations within and near the defined hotspots in the FKS1 and/or FKS2 genes.[27] To evaluate antifungal activity, we determined MIC values. The MIC was defined as the lowest drug concentration that led to turbidity (measured at 600 nm) of less than or equal to 35% of that of the untreated culture. As controls, we tested CSF, MCF, ANF, and RZF.
(§2) All of the tested compounds were dissolved in anhydrous DMSO to a concentration of 5 mg/mL. Candida strains were streaked from a glycerol stock onto YPAD agar plates and grown for 24 h at 30 °C. Colonies were suspended in 1 mL of PBS and diluted to an O.D. of 0.01 at 600 nm with YPAD broth and added into flat-bottom 96-well microplates (Corning) containing a gradient of twofold dilutions per tested compound with concentrations ranging from 64 to 0.0009 μg/mL. Control wells with no drug and blank wells without yeast cells containing YPAD only were also prepared. […] Each concentration was tested in triplicate, and results were confirmed by at least two independent sets of experiments.

[2] = system: C. glabrata; assay: as above; format: cell-based, Candida glabrata; conditions: for MIC: 24 h, 30 °C
Method: as §1, §2

[3] = system: HCT-116; assay: cells; format: cell-based; conditions: Homo sapiens; HCT-116 expressing GFP, 24 h, mean ± SD; read-out: IC50 (cell viability)
Method: (§3) In this analysis, we used HCT-116, a human colorectal carcinoma cell line; UACC-62, a human melanoma cell line; Hs 578T, a human mammary gland carcinoma cell line, and SF-295, a human glioblastoma cell line. […] The highest concentration of the echinocandins used for the cell viability tests was determined based on the reported maximal plasma concentrations (Cmax) of ANF and RZF measured in humans. A Cmax of approximately 7 μM was measured during a pharmacokinetic study of ANF in patients with candidemia or invasive candidiasis who were treated with a 200 mg loading dose on day 1, followed by a daily 100 mg maintenance dose.[64]
(§4) Human cell lines HCT-116, UACC-62, Hs 578T, and SF-295 were obtained from the Life Sciences Core Facilities of the Nancy & Stephen Grand Israel National Center for Personalized Medicine. Cell lines were grown in an RPMI medium (Gibco, cat. no. 21875-034) supplemented with 10% fetal calf serum (Biological Industries, cat. no. 04-007-1A), Pen/Strep (Biological Industries, cat. no. 03-031-1B), and glutamine (Biological Industries, cat. no. 03-020-1B). GFP was introduced into cells using TALENS according to a previously reported protocol.[73] GFP cells were selected by FACS and propagated.
(§5) Assay-ready plates were designed using in-house software (CHEMPION, INCPM software development team) and prepared in 384-well Greiner plates (cat. no. 781091) using an Echo 555 Acoustic Liquid Handler (Labcyte). The final DMSO concentration in all samples was 0.4%. Prior to the experiment, cells were trypsinized and counted using a Countess cytometer. Cells were then diluted to 40,000 cells/mL in a fresh medium. Cells (50 μL/well; 2000 cells/well) were then dispensed with a Thermo Combi dispenser into plates containing predispensed compounds. After 30 min at room temperature to ensure uniform adherence of cells, the plates were moved to an automated incubator (Liconic STX44) and incubated at 37 °C. An automated confocal microscope with a 4× S Fluor lens (Molecular Devices ImageExpress) was used to acquire images of GFP-expressing cells after 24 h of incubation. Images were then analyzed using MetaExpress with a custom protocol (Custom Module Editor), and data were annotated and normalized using Genedata Screener software. Final normalized data were then loaded into CDD Vault software for comparative data visualization.

[4] = system: SF-295; assay: cells; format: cell-based; conditions: Homo sapiens; SF-295 expressing GFP, 24 h, mean ± SD; read-out: IC50 (cell viability)
Method: as §3, §4, §5

[5] = system: UACC-62; assay: cells; format: cell-based; conditions: Homo sapiens; UACC-62 expressing GFP, 24 h, mean ± SD; read-out: IC50 (cell viability)
Method: as §3, §4, §5

[6] = system: THLE-2 cells; assay: cells; format: cell-based; conditions: Homo sapiens
Method: The effects of ANF and RZF and their dehydroxylated derivatives 1 and 2 on the viability of human cells were further evaluated in an assay with THLE-2 cells, which are a transformed human liver epithelial cell line. These cells express phenotypic characteristics of normal adult liver epithelial cells.
THLE-2 cells (ATCC, cat. no. CRL2706) were cultured in 384-well plates coated with BEBM (Lonza, cat. no CC3170) containing 100 μg/mL BSA, 1:100 fibronectin (Sigma, cat. no. F0895), and a 1:100 PureCol EZ Gel Solution (Sigma, cat. no. 5074) for 50–60 min at 37 °C. THLE-2 cells were plated at a density of 2.5 × 10^3 cells/well in the coated plates in a total volume of 20 μL. Culture media were BEGM supplemented with 5 ng/mL hEGF (Sigma, cat. no. E5036), 70 ng/mL phosphoethanolamine (Sigma, cat. no. P0503), and 10% fetal bovine serum. Plates were incubated overnight at 37 °C, 95% humidity, and 5% CO2. The culture medium was replaced with 50 μL of a fresh medium, and compounds were applied to the cells in triplicate. Plates were cultured for another 72 h, and ATP was quantified using a CellTiter-Glo kit (Promega #G7573) according to the manufacturer’s protocol. The luminescence signal was detected using a PHERAstar FS (BMG Labtech).

Work on `CCCCCOc1ccc(-c2ccc(-c3ccc(C(=O)N[C@H]4C[C@@H](O)[C@@H](O)NC(=O)[C@@H]5[C@@H](O)[C@@H](C)CN5C(=O)[C@H]([C@@H](C)O)NC(=O)[C@H]([C@H](O)Cc5ccc(O)cc5)NC(=O)[C@@H]5C[C@@H](O)CN5C(=O)[C@H]([C@@H](C)O)NC4=O)cc3)cc2)cc1` [Compound 1, dehydroxy-ANF] ({pTerphenylCO(4''-OnC5H11)}-[Orn(4R-OH,5R-OH)]T[Hyp][hTyr(3R-OH)]T[Pro(3S-OH,4S-Me)]; lactam 1-C) yielded an MIC ([1]; #1 C. albicans Sc5314) of 0.008 µg/mL (≈ 0.00712 µM), an MIC ([1]; #2 C. albicans DPL1015 (DP-A15)) of 0.031 µg/mL (≈ 0.0276 µM) and an MIC ([1]; #3 C. albicans DPL1016 (DP-A15-10)) of 1 µg/mL (≈ 0.889 µM). It also gave an MIC ([1]; #4 C. albicans T-2068 (DP-C42)) of 0.25 µg/mL (≈ 0.222 µM), an MIC ([1]; #5 C. albicans T-2069 (DP-85)) of 0.5 µg/mL (≈ 0.445 µM) and an MIC ([1]; #6 C. albicans (DP-89)) of 1 µg/mL (≈ 0.889 µM). The MIC ([1]; #7 C. albicans T-2076 (DP-194)) was 0.5 µg/mL (≈ 0.445 µM), the MIC ([1]; #8 C. albicans T-2077 (DP-205)) was 0.125 µg/mL (≈ 0.111 µM) and the “MIC difference between ANF and dehydroxy derivative 1 (ratio MIC (ANF)/MIC (1))” value ([1]; C. albicans strain 4, Fks1 phenylalanine 641 to serine) was 8 fold. It also gave an MIC ([2]; #9 C. glabrata EF1620) of 0.004 µg/mL (≈ 0.00356 µM), an MIC ([2]; #10 C. glabrata TGL00277) of 8 µg/mL (≈ 7.12 µM) and an MIC ([2]; #11 C. glabrata TGL00275) of 8 µg/mL (≈ 7.12 µM). The MIC ([2]; #12 C. glabrata CST78) was 0.002 µg/mL (≈ 0.00178 µM), the MIC ([2]; #13 C. glabrata TGL00265) was 1 µg/mL (≈ 0.889 µM) and the MIC ([2]; #14 C. glabrata TGL00264) was greater than 64 µg/mL. The MIC ([2]; #15 C. glabrata TGL00263) was 1 µg/mL (≈ 0.889 µM), the MIC ([2]; #16 C. glabrata TGL00065) was 16 µg/mL (≈ 14.2 µM) and the MIC ([2]; #17 C. glabrata CST34) was 0.002 µg/mL (≈ 0.00178 µM). For the same compound, the MIC ([2]; #18 C. glabrata TGL00258) was 32 µg/mL (≈ 28.5 µM), the MIC ([2]; #19 C. glabrata TGL00256) was 0.25 µg/mL (≈ 0.222 µM) and the MIC ([2]; #20 C. glabrata TGL00107) was greater than 64 µg/mL. It also gave an MIC ([2]; #21 C. glabrata TGL00056) greater than 64 µg/mL, an MIC ([2]; #22 C. glabrata M12) of 0.002 µg/mL (≈ 0.00178 µM) and an MIC ([2]; #23 C. glabrata TGL00270) of 1 µg/mL (≈ 0.889 µM). For the same compound, the MIC ([2]; #24 C. glabrata TGL00269) was 0.063 µg/mL (≈ 0.056 µM), the MIC ([2]; #25 C. glabrata TGL00268) was greater than 64 µg/mL and the MIC ([2]; #26 C. glabrata TGL00268) was greater than 64 µg/mL. It also gave an MIC ([2]; #27 C. glabrata EB0911) of 0.002 µg/mL (≈ 0.00178 µM), an MIC ([2]; #28 C. glabrata TGL00261) of 0.25 µg/mL (≈ 0.222 µM) and an MIC ([2]; #29 C. glabrata TGL00109) of 64 µg/mL (≈ 56.9 µM). The MIC ([2]; #30 C. glabrata TGL00259) was 4 µg/mL (≈ 3.56 µM), the MIC ([2]; #31 C. glabrata EF1237) was 0.001 µg/mL (≈ 0.000889 µM) and the MIC ([2]; #36 C. glabrata F15) was 0.002 µg/mL (≈ 0.00178 µM). It also gave an MIC ([2]; #38 C. glabrata CBS138 (ATCC 2001)) of 0.004 µg/mL (≈ 0.00356 µM), an MIC ([2]; #41 C. glabrata P35_2) of 0.002 µg/mL (≈ 0.00178 µM) and an MIC ([2]; #43 C. glabrata SLL2glab) of 0.002 µg/mL (≈ 0.00178 µM). The MIC ([2]; #46 C. glabrata BG2) was 0.001 µg/mL (≈ 0.000889 µM), the “increase in potency on dehydroxylation of ANF (ratio MIC (ANF)/MIC (1))” value ([2]; C. glabrata strain 28, Fks2 phenylalanine 659 deleted) was 8 fold and the IC50 [3] was greater than 40 µM. The IC50 [4] was 17.5 ± 1.57 µM, the IC50 [5] was greater than 40 µM and the IC50 ([6]; THLE-2, 72 h of incubation, ranges for ANF and 1 and for RZF and 2 stated jointly, read-out: IC50 value (THLE-2 viability)) was 36 to 41 µM. The IC50 ([6]; THLE-2, 72 h, ATP luminescence, read-out: IC50 (cell viability)) was 36.4 ± 2.75 µM.
